How the values were obtained:
[1] = test system: Plasmodium falciparum strain 3D7; test: Plasmodium falciparum growth inhibition imaging assay; type: cell-based; details: for SI (selectivity index): HEK293 IC50 value divided by P. falciparum IC50 value; for IC50: P. falciparum 3D7, 72 hr, n = 3
Experimental: In vitro parasite culture was maintained in RPMI with 10 mM Hepes (Life Technologies), 50 μg/ml hypoxanthine (Sigma) and 5 mg/ml AlbuMAX II® (Life Technologies). Human O + erythrocytes were obtained from the Australian Red Cross Blood Service (Agreement No: 13-04QLD-09). The parasites were maintained at 2-8% parasitaemia (% P) at 5% haematocrit (% H), incubated at 37°C, 5% CO2, 5%O2 and 90% N2 and 95% humidity. The well-established P. falciparum imaging assay was modified to allow assessment of chemical rescue with CoA. In brief, sorbitol (5% w/v) synchronization was performed twice, approximately 8 hr apart, on each synchronization day for two consecutive ring cycles, i.e., on day 1 and 3 of assay preparation. On day 2 the culture was split to approximately 2% trophozoite parasitaemia. On day 4 the culture was split to 1-1.5% trophozoite parasitaemia, which yielded approximately 8% ring parasitaemia after 48 hr (on day 5, i.e., the day of the assay set-up). Compound stocks (10 mM in 100% DMSO) were diluted 1:25 in sterile water, less than 24 hr prior to use. An additional 1:10 dilution was performed, resulting in a 1:250 overall compound dilution and a final DMSO concentration of 0.4%. For initial screening, compounds were tested at a final 2 μM concentration. For dose response curves of the active compounds, a semi-logarithmic serial dilution (containing three data points per log) was prepared at 40 μM top concentration for test compounds and 2 μM for the positive control, artemisinin. The known P. falciparum CoA synthesis inhibitor, panthenol, was prepared as a 100 mM solution in 4% DMSO. The final concentration of the dose response curve of panthenol started at 10 mM and was serially diluted down to 100 nM. CoA was dissolved in water. The final CoA concentration for optimal rescue results was determined for each CoA batch and ranged between 0.8-2 mM. Five μl of the 1:25 diluted test compound or control solutions were added to 384-well CellCarrier imaging plates (PerkinElmer). For the chemical rescue, 5 μl of CoA solution were added to ‘rescue’ wells and 5 μl water to all control and reference wells, respectively. Parasite culture was added to a final concentration of 1% parasitaemia (% P) and 0.3% haematocrit (% H). Plates were incubated for 72 hr at 37°C, 5% CO2 and 95% humidity. On day 8 the permeabilization and nuclear staining buffer was prepared in PBS containing 10 μg/ml saponin, 0.01% triton X, 5 mM EDTA (all: Sigma) and 0.5 μg/ml 4′,6-diamidino-2-phenylindole (DAPI; Life Technologies). The plates were left for at least 4 hr (typically overnight), before confocal imaging on an Opera™ High Content Screening Platform (PerkinElmer) at 405 nm excitation with a 20x water objective. Automated primary image analysis was performed concurrent with the imaging process, utilizing an Acapella® software (PerkinElmer) script to determine the number of parasites based on object size and fluorescence intensity. Determination of the % growth compared to controls (2 μM artemisinin as positive and 0.4% DMSO as negative control) was performed in Microsoft® Excel 2010. Statistical analysis including IC50 determination and graphical output was performed in GraphPad Prism® 5 using non-linear regression variable slope curve fitting.

HEK293 cells = test: HEK293 viability assay (resazurin); type: cell-based, human; details: HEK293, 72 hr, top concentration 40 μM, n = 3
Experimental: To assess cytotoxicity of compounds in dose response, a resazurin-based assay was utilized to determine cell viability. In brief, HEK293 cells were grown in DMEM medium (Life Technologies) containing 10% foetal calf serum (FCS; Gibco). Cells were trypsinized, counted and seeded at 2,000 cells per well in 45 μl media into TC-treated 384-well plates (Falcon) and left to adhere overnight at 37°C, 5% CO2 and 95% humidity.
Test compounds were prepared as described above, to give a top final test concentration of 40 μM, 0.4% DMSO. Plates were incubated for 72 hr at 37°C, 5% CO2 and 95% humidity, then the media was removed and replaced by 35 μl of 44 μM resazurin in DMEM without FCS. The plates were incubated for another 4-6 hr at 37°C, 5% CO2 and 95% humidity before reading on an EnVision® Plate Reader (PerkinElmer) using fluorescence excitation/emission settings of 530 nm/595 nm. Determination of the% growth compared to controls (40 μM puromycin as positive and 0.4% DMSO as negative control) was performed in Microsoft® Excel 2010. Statistical analysis including IC50 determination and graphical output was performed in GraphPad Prism® 5 using nonlinear regression variable slope curve fitting.

3D7 parasites = test: Time course for parasite stage affected and phenotype (Giemsa smears); type: cell-based, Plasmodium falciparum; details: for parasite stage of action / phenotype: compound at IC80, 0-48 hr
Experimental: The principle of the P. falciparum imaging assay described above was used, with the exception that the parasite synchronization was adjusted to yield parasites synchronized to a 2-hr window as established in-house. In brief, sorbitol synchronization was performed twice (approximately 8 hr apart) on day 1 and only once on day 3 (around 10.00). Schizonts observed on day 4 were left to mature and when rings were first observed, the mature schizonts were isolated using a MACS® column (Miltenyi Biotec). The purified schizonts were incubated for 2 hr at 37°C, 5% CO2 and 5% O2 and 90% N2 on a shaker. The obtained 0-2 hr old ring stage parasites were isolated by removing the remaining schizonts by flow through a MACS® column and the highly synchronized rings obtained were seeded in the assay plates with the compounds as described above. At each time point, one whole columns (16 wells) of identically treated parasites, i.e., 0.4% DMSO as control, compound at its individual IC80 or compound at IC80 plus CoA, were pooled and centrifuged. A smear was made from the pellet and stained with Giemsa (Sigma) for assessment the phenotype of treated parasites with or without supplementation of 0.8 mM CoA in comparison to DMSO controls.
The parasite viability assay used above is an endpoint assay that spans two development cycles of the parasite. To investigate the parasite stage of action of the identified compounds and the phenotype of compound treated parasites, a light microscopy-based time course study was undertaken. The seven compounds of submicromolar activity were added at time point t0 at their respective IC80 concentrations, with and without the addition of 0.8 mM CoA. The 3D7 parasites used in this experiment were age synchronized to within a 2-hr window of the ring stage. Due to assay preparation time, the parasite age at t0 therefore ranged from 0.5 hr to 2.5 hr.
At t0, t18, t24 and t48 parasite cultures for all conditions were centrifuged and Giemsa-stained blood smears were prepared. The 18-hr treatment time point was specifically chosen, since it was expected to see the transition between ring and trophozoite stage in control cultures around this time point (parasite age range 18.5 hr to […]). Therefore any delay in the transition from ring to trophozoite stage under treatment with the compounds was expected to be discernible at this time point.

[2] = compound at IC80 plus 0.8 mM CoA
[3] = compound at IC80 plus 0.8 mM CoA, t24
[4] = compound at IC80 plus 0.8 mM CoA, t48

| Structure (SMILES) | SI (selectivity index) [1] | IC50 [1] [nM] | IC50 (HEK293 cells) [µM] | compound-treated parasites able to progress from the ring to the trophozoite stage (3D7 parasites; compound at IC80) | parasite stage of action / phenotype (3D7 parasites) | dead or dying parasites (relative parasitaemia) (3D7 parasites; compound at IC80, t48) [%] | CoA rescue of stage progression / phenotype (3D7 parasites; [2]) | dead or dying parasites (relative parasitaemia) (3D7 parasites; [3]) [%] | dead or dying parasites (relative parasitaemia) (3D7 parasites; [4]) | death rate of parasites (relative parasitaemia) (3D7 parasites; compound at IC80, from t24 onwards) [%] | abnormal trophozoites as share of all counted living trophozoites (3D7 parasites; compound at IC80, t48) [%] | relative parasitaemia of trophozoites showing abnormal morphology (3D7 parasites; compound at IC80, t48) [%] | SI (selectivity index) ([1]; listed as MMV000304) | dead or dying parasites (relative parasitaemia) (3D7 parasites; compound at IC80, t24) | relative parasitaemia of trophozoites showing abnormal morphology (3D7 parasites; compound at IC80, t24) [%] | relative parasitaemia of dead or dying trophozoites (3D7 parasites; compound at IC80, t48) [%] | ring form parasites showing abnormal morphologies (3D7 parasites; compound at IC80, t48) |
| --- | --- | --- | --- | --- | --- | --- | --- | --- | --- | --- | --- | --- | --- | --- | --- | --- | --- |
| Cc1csc(Sc2ncnc3sccc23)n1 [Amb180780] | ~ 333 | 120 | ~40 | Less than 13% | arrest parasite development at the ring stage | 28.6 | rescued very well by CoA addition | 20 | control levels | – | – | – | – | – | – | – | – |
| CC(=O)c1ccc2c3c(onc13)-c1ccccc1C2=O [Amb3377585] | 18 | 150 | 2.75 | – | killing both the ring and the trophozoite stage of the parasite from approximately t24 | – | very good rescue of parasite development, death rates and morphology | – | – | 49 | 51 | 30.5 | – | – | – | – | – |
| CCOc1ccc(Nc2c3ccccc3nc3ccccc23)cc1.Cl [MMV000304/Amb636705] | 0.8 | 1210 | 1 | – | – | – | – | – | – | – | – | – | no parasite specificity | – | – | – | – |
| CCc1ccc(Nc2cc(C)c3ccc(O)cc3n2)cc1.Cl [MMV000570/C614-0191] | ~ 54 | 740 | ~40 | – | affects both the development of the ring and trophozoite stage of the parasite | ~20 | Addition of CoA did not alleviate this developmental delay | 13.4 | 8.3% | – | – | – | – | around 28% | – | – | – |
| COc1ccc2c(=O)cc(C(Cl)(Cl)Cl)oc2c1 [MMV665820/5534045] | 6.2 | 580 | 3.6 | – | main compound action is on the trophozoite stage | – | CoA addition effectively rescued both parasite development and morphology | – | – | – | – | 26.6 | – | – | 42.9 | 13.8 | – |
| CC(C)=NOC(=O)c1c(C)noc1-c1snnc1C [SPB03400] | – | 450 | > 40 | – | No change in the relative parasitaemia of rings or trophozoites compared to the untreated controls | – | – | – | – | – | – | – | – | – | – | – | around 50% |
| CC1=CC(=O)C(C(C)C)=C/C1=N/OS(=O)(=O)c1ccccc1 [STK 740987] | > 105 | 380 | > 40 | – | no change in the stage composition of rings and trophozoites compared to the controls | – | – | – | – | – | – | – | – | around 16% | – | – | – |
